Source: patent US20020098211A1, “ANTIMICROBIAL AGENT AND USES THEREOF, IN PARTICULAR IN COSMETICS AND DERMATOLOGY” (priority 1998, published 2002)

Tested on: Enterococcus faecalis (American Type Culture Collection No. 33186)
Assay: Antimicrobial (preservation) challenge test, count of surviving microorganisms in the inoculated product
Experimental: Bacterium: Enterococcus faecalis (American Type Culture Collection No. 33186), cultured on soybean Trypticase Yeast: Candida albicans (American Type Culture Collection No. 10231), cultured on Sabouraud.
Inoculum preparation: tryptone-salt diluent
Counting: Eugon LT100 agar broth
On the evening before the test, each microbial strain is plated out on the appropriate agar medium and incubated in an oven at 35° C.
On the day of the test, 20 grams of the product are weighed out in a sterile pill box. Inoculation is carried out at a concentration of 1% using a microbial suspension with a titre of 108 microorganisms per ml: a concentration of 106 is obtained in the product. The contaminated sample is incubated in an oven at 22° C.
After incubation for 7 days, 1 gram of product is taken and tenfold dilutions are carried out in Eugon LT100 broth, and these dilutions are plated out on the surface of Petri dishes containing Eugon LT100 agar. The dishes are incubated at 35° C.
The colonies are counted on the dishes containing more than 20 and less than 200 colonies.

Row | Structure (SMILES) | number of microorganisms per gram of preparation, remaining in the product after 7 days of contact (Table 5, single agent at 3%) | also measured
1 | CCCC(O)CO (stereo not shown) [pentanediol, 1,2-pentanediol] | 2.3 × 10^5 microorganisms per gram of preparation | –
2 | CC(O)CCO (stereo not shown) [Butanediol, butanediol] | 4.0 × 10^5 microorganisms per gram of preparation | –
3 | CCCCCCCC(=O)OC(C)C(=O)OC(C)C(=O)[O-].[Na+] (stereo not shown) [Sodium capryl lactyl lactylate, sodium capryl lactyl lactylate] | – | number of microorganisms per gram of preparation, remaining in the product after 7 days of contact (Table 5, single agent at 1%): 1.5 × 10^4 microorganisms per gram of preparation
4 | CCCCCCC(O)CO (stereo not shown) [Octanediol, 1,2-octanediol] | – | number of microorganisms per gram of preparation, remaining in the product after 7 days of contact (Table 5, single agent at 0.25%): 3.7 × 10^5 microorganisms per gram of preparation
